biological target: T1, human adenosine A2b receptor (Homo sapiens, UniProt P29275); test: Cellular in vitro reporter gene test for A2b receptor activity (antagonism of NECA); format: cell-based; set-up: expressed in transfected cells; host or cells: CHO-K1 (Chinese hamster ovary) with CRE-luciferase reporter; details: recombinant CHO-K1 cells, CRE-luciferase reporter, co-incubation with EC50 concentration of NECA, 3 hours
T1 sequence (P29275 1-332): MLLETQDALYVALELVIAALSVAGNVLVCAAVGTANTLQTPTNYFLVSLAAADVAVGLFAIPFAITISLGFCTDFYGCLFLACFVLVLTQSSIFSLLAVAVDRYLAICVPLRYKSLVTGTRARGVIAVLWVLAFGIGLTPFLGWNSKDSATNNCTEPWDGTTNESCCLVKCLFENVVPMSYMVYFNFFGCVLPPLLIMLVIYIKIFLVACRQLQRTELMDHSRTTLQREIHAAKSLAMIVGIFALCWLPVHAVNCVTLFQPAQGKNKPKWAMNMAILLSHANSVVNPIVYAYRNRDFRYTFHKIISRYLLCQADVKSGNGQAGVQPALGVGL
Summary of the method: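 CHO-K1 cells expressing recombinant human A2b receptor plus a CRE-driven firefly luciferase reporter. Compounds co-incubated with NECA at its same-day EC50 concentration; luminescence read 3 hours after NECA addition. IC50 values, sometimes means of several determinations rounded to two significant figures.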

SMILES	IC50 [nM]
Cc1c(Cn2nc[nH]c2=O)sc2c1c(=O)n([C@H]1C[C@@H]1C)c(=O)n2CCCF [Example 322, 1-(3-Fluoropropyl)-5-methyl-3-[(1S,2S)-2-methylcyclopropyl]-6-[(5-oxo-4,5-dihydro-H-1,2,4-triazol-1-yl)methyl]thieno[2,3-d]pyrimidine-2,4(1H,3H)-dione]	14
COCCn1c(=O)n(C2CC2C(F)(F)F)c(=O)c2c(C)c(Cn3nc[nH]c3=O)sc21 (racemic) [Example 297, 1-(2-Methoxyethyl)-5-methyl-6-[(5-oxo-4,5-dihydro-1H-1,2,4-triazol-1-yl)methyl]-3-[2-(trifluoromethyl)cyclopropyl]thieno[2,3-d]pyrimidine-2,4(1H,3H)-dione]	120
COCCn1c(=O)n(C2CC(C)(C)C2)c(=O)c2c(C)c(CN3CCNC3=NC#N)sc21 [Example 170, [1-{[3-(3,3-Dimethylcyclobutyl)-1-(2-methoxyethyl)-5-methyl-2,4-dioxo-1,2,3,4-tetrahydrothieno[2,3-d]pyrimidin-6-yl]methyl}imidazolidin-2-ylidene]cyanamide]	8.6
COCCn1c(=O)n([C@H]2C[C@H](OC)C2)c(=O)c2c(C)c(CN3CCNC3=NC(=O)OC)sc21 [Example 151, Methyl [1-{[3-(trans-3-methoxycyclobutyl)-1-(2-methoxyethyl)-5-methyl-2,4-dioxo-1,2,3,4-tetrahydrothieno[2,3-d]pyrimidin-6-yl]methyl}imidazolidin-2-ylidene]carbamate]	45
Cc1c(Cn2nc[nH]c2=O)sc2c1c(=O)n(C1CC1)c(=O)n2C [Example 2, 3-Cyclopropyl-1,5-dimethyl-6-[(5-oxo-4,5-dihydro-1H-1,2,4-triazol-1-yl)methyl]thieno[2,3-d]pyrimidine-2,4(1H,3H)-dione]	81
Cc1c(CN2CCNC2=O)sc2c1c(=O)n([C@H]1C[C@@H]1C)c(=O)n2CC1CC1(F)F (stereo partly drawn) [Example 249, 1-[(2,2-Difluorocyclopropyl)methyl]-5-methyl-3-[(1S,2S)-2-methylcyclopropyl]-6-[(2-oxoimidazolidin-1-yl)methyl]thieno[2,3-d]pyrimidine-2,4(1H,3H)-dione]	1.9
CCCn1c(=O)n(C2CC2)c(=O)c2c(C)c(Cn3nc[nH]c3=O)sc21 [Example 195, 3-Cyclopropyl-5-methyl-6-[(5-oxo-4,5-dihydro-1H-1,2,4-triazol-1-yl)methyl]-1-propylthieno[2,3-d]pyrimidine-2,4(1H,3H)-dione]	120
Cc1c(CN2CCNC2=O)sc2c1c(=O)n(C1CC1)c(=O)n2CC1CCC1 [Example 17, 1-(Cyclobutylmethyl)-3-cyclopropyl-5-methyl-6-[(2-oxoimidazolidin-1-yl)methyl]thieno[2,3-d]pyrimidine-2,4(1H,3H)-dione]	4.1
Cc1c(CN2CCNC2=O)sc2c1c(=O)n(C1CC1C)c(=O)n2CC1CC(F)(F)C1 (racemic) [Example 252, 1-[(3,3-Difluorocyclobutyl)methyl]-5-methyl-3-(2-methylcyclopropyl)-6-[(2-oxoimidazolidin-1-yl)methyl]thieno[2,3-d]pyrimidine-2,4(1H,3H)-dione]	1.4
Cc1c(CN2CCNC2=O)sc2c1c(=O)n([C@H]1C[C@@H]1C)c(=O)n2CC1CCC(F)(F)C1 (single isomer, unassigned) [Example 256]	5.5
COCCn1c(=O)n([C@H]2C[C@H](OC)C2)c(=O)c2c(C)c(CN3CCNC3=NC#N)sc21 [Example 150, [1-{[3-(trans-3-Methoxycyclobutyl)-1-(2-methoxyethyl)-5-methyl-2,4-dioxo-1,2,3,4-tetrahydrothieno[2,3-d]pyrimidin-6-yl]methyl}imidazolidin-2-ylidene]cyanamide]	120
Cc1c(CN2CCNC2=NC#N)sc2c1c(=O)n(C1CC(F)(F)C1)c(=O)n2CCC(F)(F)F [Example 121, [1-{[3-(3,3-Difluorocyclobutyl)-5-methyl-2,4-dioxo-1-(3,3,3-trifluoropropyl)-1,2,3,4-tetrahydrothieno[2,3-d]pyrimidin-6-yl]methyl}imidazolidin-2-ylidene]cyanamide]	15
COCCn1c(=O)n(C2CC2C)c(=O)c2c(C)c(CN3CCNC3=O)sc21 (racemic) [Example 258, 1-(2-Methoxyethyl)-5-methyl-3-(2-methylcyclopropyl)-6-[(2-oxoimidazolidin-1-yl)methyl]thieno[2,3-d]pyrimidine-2,4(1H,3H)-dione]	6.4
Cc1c(CN2CCNC2=O)sc2c1c(=O)n(C1CC1)c(=O)n2C [Example 1, 3-Cyclopropyl-1,5-dimethyl-6-[(2-oxoimidazolidin-1-yl)methyl]thieno[2,3-d]pyrimidine-2,4(1H,3H)-dione]	20
Cc1c(CN2CCNC2=O)sc2c1c(=O)n(C1CC1C)c(=O)n2CCF (racemic) [Example 231, 1-(2-Fluoroethyl)-5-methyl-3-(2-methylcyclopropyl)-6-[(2-oxoimidazolidin-1-yl)methyl]thieno[2,3-d]pyrimidine-2,4(1H,3H)-dione]	2.3
CCCCn1c(=O)n(C2(C)CC2)c(=O)c2c(C)c(Cn3nc[nH]c3=O)sc21 [Example 55, 1-Butyl-5-methyl-3-(1-methylcyclopropyl)-6-[(5-oxo-4,5-dihydro-1H-1,2,4-triaiazol-1-yl)methyl]thieno[2,3-d]pyrimidine-2,4(1H,3H)-dione]	49
Cc1c(CN2CCNC2=O)sc2c1c(=O)n(C1CC1C)c(=O)n2CCC(F)(F)C(F)F (single isomer, unassigned) [Example 247, 5-Methyl-3-(2-methylcyclopropyl)-6-[(2-oxoimidazolidin-1-yl)methyl]-1-(3,3,4,4-tetrafluorobutyl)thieno[2,3-d]pyrimidine-2,4(1H,3H)-dione]	3.5
Cc1c(CN2CCNC(=O)C2=O)sc2c1c(=O)n(C1CCC1)c(=O)n2CCC(F)(F)F [Example 113, 3-Cyclobutyl-6-[(2,3-dioxopiperazin-1-yl)methyl]-5-methyl-1-(3,3,3-trifluoropropyl)thieno[2,3-d]pyrimidine-2,4(1H,3H)-dione]	2
COCCn1c(=O)n(C2CC2OC)c(=O)c2c(C)c(CN3CCNC3=O)sc21 (single isomer, unassigned) [Example 308, 3-(2-Methoxycyclopropyl)-1-(2-methoxyethyl)-5-methyl-6-[(2-oxoimidazolidin-1-yl)methyl]thieno[2,3-d]pyrimidine-2,4(1H,3H)-dione]	870
CO[C@H]1C[C@@H](n2c(=O)c3c(C)c(CN4CCNC4=NC#N)sc3n(CCC(F)(F)F)c2=O)C1 [Example 155, [1-{[3-(cis-3-Methoxycyclobutyl)-5-methyl-2,4-dioxo-1-(3,3,3-trifluoropropyl)-1,2,3,4-tetrahydrothieno[2,3-d]pyrimidin-6-yl]methyl}imidazolidin-2-ylidene]cyanamide]	56
Cc1c(Cn2nc[nH]c2=O)sc2c1c(=O)n([C@H]1C[C@@H]1C)c(=O)n2CC1CCC1 [Example 327, 1-(Cyclobutylmethyl)-5-methyl-3-[(1S,2S)-2-methylcyclopropyl]-6-[(5-oxo-4,5-dihydro-1H-1,2,4-triazol-1-yl)methyl]thieno[2,3-d]pyrimidine-2,4(1H,3H)-dione]	8.5
COCCn1c(=O)n(C2(C(F)(F)F)CC2)c(=O)c2c(C)c(CN3CCNC3=NC#N)sc21 [Example 86, [1-({1-(2-Methoxy ethyl)-5-methyl-2,4-dioxo-3-[1-(trifluoromethyl)cyclopropyl]-1,2,3,4-tetrahydrothieno[2,3-d]pyrimidin-6-yl}methyl)imidazolidin-2-ylidene]cyanamide]	270
Cc1c(CN2CCNC2=O)sc2c1c(=O)n(C1(C)CC1)c(=O)n2CC1CC1(F)F (single isomer, unassigned) [Example 64, 1-[(2,2-Difluorocyclopropyl)methyl]-5-methyl-3-(1-methylcyclopropyl)-6-[(2-oxoimidazolidin-1-yl)methyl]thieno[2,3-d]pyrimidine-2,4(1H,3H)-dione]	13
Cc1c(CN2CCNC2=O)sc2c1c(=O)n(C1CC1C)c(=O)n2CC(F)(F)F (single isomer, unassigned) [Example 239, 5-Methyl-3-(2-methylcyclopropyl)-6-[(2-oxoimidazolidin-1-yl)methyl]-1-(2,2,2-trifluoroethyl)thieno[2,3-d]pyrimidine-2,4(1H,3H)-dione]	4.7
Cc1c(CN2CCNC2=O)sc2c1c(=O)n(C1CC1)c(=O)n2CCOC(F)(F)F [Example 35, 3-Cyclopropyl-5-methyl-6-[(2-oxoimidazolidin-1-yl)methyl]-1-[2-(trifluoromethoxy)ethyl]thieno[2,3-d]pyrimidine-2,4(1H,3H)-dione]	1.8
Cc1c(CN2CCNC2=O)sc2c1c(=O)n(C1(C)CC1)c(=O)n2C[C@H]1CCCO1 [Example 81, 5-Methyl-3-(1-methylcyclopropyl)-6-[(2-oxoimidazolidin-1-yl)methyl]-1-[(2R)-tetrahydrofuran-2-ylmethyl]thieno[2,3-d]pyrimidine-2,4(1H,3H)-dione]	39
Cc1c(CN2CCNC2=O)sc2c1c(=O)n(C1CC1C)c(=O)n2CCF (single isomer, unassigned) [Example 232, 1-(2-Fluoroethyl)-5-methyl-3-(2-methylcyclopropyl)-6-[(2-oxoimidazolidin-1-yl)methyl]thieno[2,3-d]pyrimidine-2,4(1H,3H)-dione]	0.86

Source: US20200016159A1, “N3-CYCLICALLY SUBSTITUTED THIENOURACILS AND USE THEREOF” (Bayer Aktiengesellschaft, priority 2016, published 2020)
